Results: patent publication US7176183B2, “Methods for treating and preventing damage to mucosal tissue” (University of Southern California, priority 1999, dated 2007)
Several values for one entry are separate records, joined by “and”; a condition that tells them apart may be missing. Equal entries are not always repeated. Entries after “also recorded” stand apart in the source; their conditions may differ.

What was measured:
[1] = Effectiveness test of AII fragments (test not specified)
[2] = tested on: patients with newly diagnosed breast cancer receiving doxorubicin and cyclophosphamide; assay: Phase I/II dose escalation study of AII(1–7) in chemotherapy patients: incidence of stomatitis (oral mucositis); format: in vivo; details: for Stomatitis (incidents of stomatitis associated with chemotherapy): chemotherapy patients (doxorubicin/cyclophosphamide), subcutaneous treatment, AII(1-7) n = 14, filgrastim n = 5
Protocol: The Phase I/II study was a prospective, open-label, dose-escalation study comparing the effects of AII(1–7 (SEQ ID NO:4)) in patients with newly diagnosed breast cancer receiving doxorubicin 60 mg/m^2 and cyclophosphamide 600 mg/m^2 for at least 3 cycles of adjuvant chemotherapy following surgical tumor reduction. A filgrastim comparator arm was used to compare safety and response variables and to assess synergy of AII(1–7) with filgrastim (NEUPOGEN®, Amgen, Inc., Thousand Oaks, Calif.).
Patients who satisfied the inclusion/exclusion criteria received a once daily subcutaneous injection of the given AII(1–7) dose level for 7 days followed by a 1 week rest period prior to any chemotherapy (cycle 0) in the interval between tumor reduction and planned chemotherapy. Dose escalation within an individual patient was not permitted.
Following the rest period, a chemotherapy regimen containing doxorubicin 60 mg/m^2 and cyclophosphamide 600 mg/m^2 was initiated. AII(1–7) was administered for at least 10 days, or until the absolute neutrophil count (ANC)>1500/μL for 2 days, beginning two days after chemotherapy. Up to three chemotherapy cycles followed by AII(1–7) administration will be repeated every 21 days or as indicated by patient tolerance. Any patient that fails to achieve an ANC>1500/μL by day 15 (13 days of AII(1–7)) received a filgrastim rescue of 5.0 μg/kg/day until the ANC>1500/μL for 2 days.
During the conduct of the AII (1–7) clinical trial to examine the effect of subcutaneous injection of AII(1–7) on hematological recovery in new breast cancer patients receiving chemotherapy (doxorubicin/cyclophosphamide), adverse events that occurred were collected.
An adverse event (AE) was considered any unfavorable or unintended change in structure, function, signs, or symptoms temporally associated with the use of a medicinal product experienced by a person administered a pharmaceutical product, whether or not a causal relationship with the product has been established. During the conduct of this clinical trial, study personnel asked open-ended questions to obtain information about AEs at every visit. Signs and symptoms were graded by the Investigator using the WHO toxicity criteria. […] If there was stomatitis, it was graded on a four point scale as: […]

Female C57B1/6 mice = assay: Gastrointestinal mucositis induced by cyclophosphamide injection into mice, histological scoring; format: in vivo; parameters: key to Overall score: 0: No lesion; <10% Crypts distorted; 2: >10% Crypts distorted, no necrotic cells; 3: >10% Crypts distorted, occasional necrotic cell; 4: Same as 3 except more extensive; key to Epithelium score / Crypt Architecture score: 0: Normal; <10% Crypt distortion; 2: 10–50% Crypt distortion; 3: >50% Crypt distortion; details: for Epithelium score / Crypt Architecture score / Overall score: AII(1–7) 100 μg/kg s.c., one line per animal
Protocol: Female C57B1/6 mice were given an intraperitoneal injection of cyclophosphamide at concentrations of 200 or 250 mg/kg. After 2 days, the mice began treatment with either AII(1–7) (100 μg/kg), or phosphate buffered saline, both of which were given subcutaneously. The baseline weight of the mice was determined, and the mice were observed daily for 7–14 days, after which the animals were necropsied. Samples from the intestines were taken at four levels, in that the intestine was cut transversely at four places along the intestinal tract, from which histological preparations were made and evaluated, in order to reduce bias due to site selection. The samples were fixed in formalin for histological evaluation of crypt distortion and architecture, as well as epithelial attenuation. The crypt is a part of the gastrointestinal tract where the mucosal glands reside. Crypt distortion is a measure of the amount of disruption to the tissue that occurs as a result of mucosal damage. The epithelium is the cell/mucosal lining to the gastrointestinal tract. Epithelial attenuation is a measure of the amount of destruction to the epithelial lining.
Histological scoring was performed in a blinded fashion. The scores on the accompanying table were given on the following scale: […]

[3] = cyclophosphamide 200 mg/kg i.p., listed as A(1-7)
[4] = cyclophosphamide 250 mg/kg i.p., listed as A(1-7)

Tyr-Ile-His-Pro-Phe (YIHPF) [AII(4–8)]
Effectiveness [1]: not to be effective; also recorded: ineffective

Asp-Arg-Val-Tyr-Ile-His-Pro [AII(1–7)]
Reduction of the frequency of stomatitis relative to that observed with filgrastim treatment ([2]; chemotherapy patients): 30%
Stomatitis (incidents of stomatitis associated with chemotherapy) [2]: 40%
Effect on stomatitis (oral mucositis) relative to control ([2]; subcutaneous administration, chemotherapy patients): reduced; also recorded: significantly decreased
Epithelium score (Female C57B1/6 mice; cyclophosphamide 200 mg/kg i.p.): 1 (Mild Attenuation (<10%))
Crypt Architecture score (Female C57B1/6 mice; [3]): 0 and 1 (<10% Crypt distortion) (2×)
Overall score (Female C57B1/6 mice; [3]): 0 and 1 (<10% Crypts distorted) (2×)
Crypt Architecture score (Female C57B1/6 mice; [4]): 1 (<10% Crypt distortion) (2×) and 2 (10–50% Crypt distortion)
Epithelium score (Female C57B1/6 mice; [4]): 0 and 1 (Mild Attenuation (<10%)) (2×)
Overall score (Female C57B1/6 mice; [4]): 0 and 1 (<10% Crypts distorted) and 2 (>10% Crypts distorted, no necrotic cells)
Level of gastrointestinal mucositis by all histological scores (Female C57B1/6 mice; versus saline): reduced

His-Pro-Phe (HPF) [AII(6–8)]
Effectiveness [1]: not to be effective

B1: filgrastim (protein, chains of the INN, looked up)
chain: MTPLGPASSLPQSFLLKCLEQVRKIQGDGAALQEKLCATYKLCHPEELVLLGHSLGIPWAPLSSCPSQALQLAGCLSQLHSGLFLYQGLLQALEGISPELGPTLDTLQLDVADFATTIWQQMEELGMAPALQPTQGAMPAFASAFQRRAGGVLVASHLQSFLEVSYRVLRHLAQP
notes: filgrastim (NEUPOGEN®, Amgen, Inc.), comparator arm
Stomatitis (incidents of stomatitis associated with chemotherapy) [2]: 60%
